Results reported in patent publication US20240158446A1, “CYCLIC COMPOUND HAVING SELECTIVE INHIBITORY ACTION ON KRAS OVER HRAS AND NRAS” (CHUGAI SEIYAKU KABUSHIKI KAISHA, priority 2021, published 2024).

Experiments:
[1] = target: GDP-bound NRAS wild-type protein (Homo sapiens, UniProt P01111); assay: Binding to NRAS by surface plasmon resonance (SPR), Single Cycle Kinetics; settings: SPR KD ratio NRAS/KRAS, class symbols
[2] = target: GDP-bound HRAS wild-type protein (Homo sapiens, UniProt P01112); assay: Binding to HRAS by surface plasmon resonance (SPR), Single Cycle Kinetics; settings: SPR KD ratio HRAS/KRAS, class symbols
GDP-bound HRAS wild-type protein, sequence (P01112 whole entry): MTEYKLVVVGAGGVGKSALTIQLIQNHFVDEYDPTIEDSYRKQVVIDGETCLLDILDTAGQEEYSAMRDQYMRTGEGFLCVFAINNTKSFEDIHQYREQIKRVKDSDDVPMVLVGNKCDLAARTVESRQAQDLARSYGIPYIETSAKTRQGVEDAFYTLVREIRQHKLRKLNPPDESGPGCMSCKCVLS

[3] = target: GDP-bound KRAS wild-type protein (Homo sapiens, UniProt P01116); assay: Binding to KRAS by surface plasmon resonance (SPR), Single Cycle Kinetics; settings: SPR Single Cycle Kinetics, GDP-bound KRAS wild-type protein, 1:1 binding model; read-out: KRAS KD
GDP-bound KRAS wild-type protein, sequence (P01116 whole entry): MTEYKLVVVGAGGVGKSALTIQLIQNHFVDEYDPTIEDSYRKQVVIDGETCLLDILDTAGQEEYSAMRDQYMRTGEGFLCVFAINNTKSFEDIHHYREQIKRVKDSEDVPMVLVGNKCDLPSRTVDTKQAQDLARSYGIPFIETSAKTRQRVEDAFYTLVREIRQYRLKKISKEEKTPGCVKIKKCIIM

GDP-bound NRAS wild-type protein, sequence (P01111 whole entry): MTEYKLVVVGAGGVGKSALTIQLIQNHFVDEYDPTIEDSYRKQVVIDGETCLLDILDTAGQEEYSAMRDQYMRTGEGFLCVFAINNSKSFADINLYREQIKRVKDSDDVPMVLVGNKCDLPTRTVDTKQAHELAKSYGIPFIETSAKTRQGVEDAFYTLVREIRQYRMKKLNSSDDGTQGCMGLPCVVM

| SMILES | NRAS/KRAS (ratio of KD value with respect to GDP-bound NRAS wild-type protein to KD value with respect to KRAS) [1] | HRAS/KRAS (ratio of KD value with respect to GDP-bound HRAS wild-type protein to KD value with respect to KRAS) [2] | Kd [3] |
| --- | --- | --- | --- |
| CCO[C@@H]1C[C@H]2C(=O)NC3(CC(C)(C)C3)C(=O)N(C)[C@@H](C3CCCC3)C(=O)N(C)[C@H](C(=O)N3CCCC3)CC(=O)N(C)[C@H]3CCCC/C=C/c4ccc(cc4)C[C@@H](C(=O)N(C)CC(=O)N[C@@H](CCc4ccc(Cl)c(Cl)c4)C(=O)N2C1)N1CC/C=C\C[C@@H](C1=O)N(C)C(=O)CN(C)C(=O)[C@H]([C@@H](C)CC)NC3=O [PP2593] | A (a compound having 10 or more and less than 20 is denoted as A) | A (a compound having 10 or more and less than 20 is denoted as A) | 150 pM |
| CCC(CC)[C@H]1C(=O)N(C)[C@H](C(=O)N(C)C)CC(=O)N(C)[C@H]2CCC/C=C/c3ccc(cc3)C[C@@H](C(=O)N(C)CC(=O)N[C@@H](CCc3cc(F)c(C(F)(F)F)c(F)c3)C(=O)N3C[C@H](OC(C)C)C[C@H]3C(=O)NC3(CC(C)(C)C3)C(=O)N1C)N1CC/C=C\C[C@@H](C1=O)N(C)C(=O)CN(C)C(=O)[C@H]([C@@H](C)CC)NC2=O [PP2594] | A (a compound having 10 or more and less than 20 is denoted as A) | A (a compound having 10 or more and less than 20 is denoted as A) | 100 pM |
| CC[C@H](C)[C@@H]1NC(=O)[C@@H]2CCC/C=C/c3ccc(cc3)C[C@@H](C(=O)N(C)CC(=O)N[C@@H](CCc3ccc(Cl)c(Cl)c3)C(=O)N3C[C@H](OC(C)C)C[C@H]3C(=O)NC3(CC(C)(C)C3)C(=O)N(C)[C@@H](C3CCCC3)C(=O)N(C)[C@H](C(=O)N(C)CC)CC(=O)N2C)N2CC/C=C\C[C@@H](C2=O)N(C)C(=O)CN(C)C1=O [PP2595] | A (a compound having 10 or more and less than 20 is denoted as A) | B (a compound having 3 or more and less than 10 is denoted as B) | 170 pM |
| CC[C@H](C)[C@@H]1NC(=O)[C@@H]2CCC/C=C/c3ccc(cc3)C[C@@H](C(=O)N(C)CC(=O)N[C@@H](CCc3ccc(Cl)c(Cl)c3)C(=O)N3C[C@H](OC(C)C)C[C@H]3C(=O)NC3(CC(C)(C)C3)C(=O)N(C)[C@@H](C3CCCC3)C(=O)N(C)[C@H](C(=O)N3CCCC3)CC(=O)N2C)N2CC/C=C\C[C@@H](C2=O)N(C)C(=O)CN(C)C1=O [PP2596] | A (a compound having 10 or more and less than 20 is denoted as A) | A (a compound having 10 or more and less than 20 is denoted as A) | 160 pM |
| CCO[C@@H]1C[C@H]2C(=O)NC3(CC(C)(C)C3)C(=O)N(C)[C@@H](C3CCCC3)C(=O)N(C)[C@H](C(=O)N3CCCCC3)CC(=O)N(C)[C@H]3CC/C=C/c4ccc(cc4)C[C@@H](C(=O)N(C)CC(=O)N[C@@H](CCc4ccc(Cl)c(Cl)c4)C(=O)N2C1)N1CC/C=C\C[C@@H](C1=O)N(C)C(=O)CN(C)C(=O)[C@H]([C@@H](C)CC)NC3=O [PP2597] | A (a compound having 10 or more and less than 20 is denoted as A) | A (a compound having 10 or more and less than 20 is denoted as A) | 510 pM |
| CCC(CC)[C@H]1C(=O)N(C)[C@H](C(=O)N(C)C)CC(=O)N(C)[C@H]2CCC/C=C/c3ccc(cc3)C[C@@H](C(=O)N(C)CC(=O)N[C@@H](CCc3cc(F)c(C(F)(F)F)c(F)c3)C(=O)N3CCC[C@H]3C(=O)NC3(CC(C)(C)C3)C(=O)N1C)N1CC/C=C\C[C@@H](C1=O)N(C)C(=O)CN(C)C(=O)[C@H]([C@@H](C)CC)NC2=O [PP2600] | A (a compound having 10 or more and less than 20 is denoted as A) | A (a compound having 10 or more and less than 20 is denoted as A) | 170 pM |
| CC[C@H](C)[C@@H]1NC(=O)[C@@H]2CCC/C=C/c3ccc(cc3)C[C@@H](C(=O)N(C)CC(=O)N[C@@H](CCc3ccc(Cl)c(Cl)c3)C(=O)N3CCC[C@H]3C(=O)NC3(CC(C)(C)C3)C(=O)N(C)[C@@H](C3CCCC3)C(=O)N(C)[C@H](C(=O)N(C)CC)CC(=O)N2C)N2CC/C=C\C[C@@H](C2=O)N(C)C(=O)CN(C)C1=O [PP2601] | A (a compound having 10 or more and less than 20 is denoted as A) | A (a compound having 10 or more and less than 20 is denoted as A) | 200 pM |
| CC[C@H](C)[C@@H]1NC(=O)[C@@H]2CCC/C=C/c3ccc(cc3)C[C@@H](C(=O)N(C)CC(=O)N[C@@H](CCc3ccc(Cl)c(Cl)c3)C(=O)N3CCC[C@H]3C(=O)NC3(CC(C)(C)C3)C(=O)N(C)[C@@H](C3CCCC3)C(=O)N(C)[C@H](C(=O)N3CCCC3)CC(=O)N2C)N2CC/C=C\C[C@@H](C2=O)N(C)C(=O)CN(C)C1=O [PP2602] | A (a compound having 10 or more and less than 20 is denoted as A) | A (a compound having 10 or more and less than 20 is denoted as A) | 250 pM |
| CCC(CC)[C@H]1C(=O)N(C)[C@H](C(=O)N(C)C)CC(=O)N(C)[C@H]2CCC/C=C/c3ccc(cc3)C[C@@H](C(=O)N(C)CC(=O)N[C@@H](CCc3ccc(Cl)c(Cl)c3)C(=O)N3CCC[C@H]3C(=O)NC3(CC(C)(C)C3)C(=O)N1C)N1CC/C=C\C[C@@H](C1=O)N(C)C(=O)CN(C)C(=O)[C@H]([C@@H](C)CC)NC2=O [PP2603] | AA (a compound having 20 or more is denoted as AA) | A (a compound having 10 or more and less than 20 is denoted as A) | 440 pM |
| CCC(CC)[C@H]1C(=O)N(C)[C@H](C(=O)N2CCCC2)CC(=O)N(C)[C@H]2CCC/C=C/c3ccc(cc3)C[C@@H](C(=O)N(C)CC(=O)N[C@@H](CCc3ccc(Cl)c(Cl)c3)C(=O)N3CCC[C@H]3C(=O)NC3(CC(C)(C)C3)C(=O)N1C)N1CC/C=C\C[C@@H](C1=O)N(C)C(=O)CN(C)C(=O)[C@H]([C@@H](C)CC)NC2=O [PP2604] | AA (a compound having 20 or more is denoted as AA) | A (a compound having 10 or more and less than 20 is denoted as A) | 400 pM |
| CCO[C@@H]1C[C@H]2C(=O)NC3(CCC3)C(=O)N(C)[C@@H](C3CCCC3)C(=O)N(C)[C@H](C(=O)N(C)C)CC(=O)N(C)[C@@H](CC3CCCC3)C(=O)N[C@@H]([C@@H](C)CC)C(=O)N(C)CC(=O)N(C)[C@H]3C/C=C\CCN(C3=O)[C@@H](Cc3ccc(C)cc3)C(=O)N(C)CC(=O)N[C@@H](CCc3cc(F)c(CC)c(OC)c3)C(=O)N2C1 [PP2674] | A (a compound having 10 or more and less than 20 is denoted as A) | A (a compound having 10 or more and less than 20 is denoted as A) | 500 pM |
| CCO[C@@H]1C[C@H]2C(=O)NC3(CCC3)C(=O)N(C)[C@@H](C3CCCC3)C(=O)N(C)[C@H](C(=O)N(C)C)CC(=O)N(C)[C@@H](CC3CCCC3)C(=O)N[C@@H]([C@@H](C)CC)C(=O)N(C)CC(=O)N(C)[C@H]3C/C=C\CCN(C3=O)[C@@H](Cc3ccc(C)cc3)C(=O)N(C)CC(=O)N[C@@H](CCc3cc(C)c(C(F)F)c(C)c3)C(=O)N2C1 [PP2675] | A (a compound having 10 or more and less than 20 is denoted as A) | A (a compound having 10 or more and less than 20 is denoted as A) | 4500 pM |
| CCO[C@@H]1C[C@H]2C(=O)NC3(CCC3)C(=O)N(C)[C@@H](C3CCCC3)C(=O)N(C)[C@H](C(=O)N(C)C)CC(=O)N(C)[C@@H](CC3CCCC3)C(=O)N[C@@H]([C@@H](C)CC)C(=O)N(C)CC(=O)N(C)[C@H]3C/C=C\CCN(C3=O)[C@@H](Cc3ccc(C)cc3)C(=O)N(C)CC(=O)N[C@@H](CCc3cc(C)c(C(F)F)c(F)c3)C(=O)N2C1 [PP2676] | A (a compound having 10 or more and less than 20 is denoted as A) | A (a compound having 10 or more and less than 20 is denoted as A) | 870 pM |
| CCO[C@@H]1C[C@H]2C(=O)NC3(CCC3)C(=O)N(C)[C@@H](C3CCCC3)C(=O)N(C)[C@H](C(=O)N(C)C)CC(=O)N(C)[C@@H](CC3CCCC3)C(=O)N[C@@H]([C@@H](C)CC)C(=O)N(C)CC(=O)N(C)[C@H]3C/C=C\CCN(C3=O)[C@@H](Cc3ccc(C)cc3)C(=O)N(C)CC(=O)N[C@@H](CCc3cc(C)c(C(F)F)c(Cl)c3)C(=O)N2C1 [PP2677] | A (a compound having 10 or more and less than 20 is denoted as A) | A (a compound having 10 or more and less than 20 is denoted as A) | 1300 pM |
| CCO[C@@H]1C[C@H]2C(=O)NC3(CCC3)C(=O)N(C)[C@@H](C3CCCC3)C(=O)N(C)[C@H](C(=O)N(C)C)CC(=O)N(C)[C@@H](CC3CCCC3)C(=O)N[C@@H]([C@@H](C)CC)C(=O)N(C)CC(=O)N(C)[C@H]3C/C=C\CCN(C3=O)[C@@H](Cc3ccc(C)cc3)C(=O)N(C)CC(=O)N[C@@H](CCc3cc(Cl)c(C(F)(F)F)c(Cl)c3)C(=O)N2C1 [PP2679] | A (a compound having 10 or more and less than 20 is denoted as A) | A (a compound having 10 or more and less than 20 is denoted as A) | 99 pM |
